Experimental data from patent US20050020544A1, “Bicyclic CB2 cannabinoid receptor ligands” (priority 2002, published 2005).
Where two headings read alike, the source gives them in different places.

How the values were obtained:
[1] = tested on: IL-1β secretion from activated RAW 264.7 macrophages; assay: Inhibition of IL-1β in LPS activated macrophages (ELISA); format: cell-based; conditions: Mus musculus; for inhibition at 10 µM: RAW264.7, 24 h, read-out: inhibition of IL-1β secretion
Method: The technique used to quantify the amount of a given protein in a liquid sample, either tissue culture supernatant or body fluid, is based on Enzyme Linked ImmunoSorbent Assay (ELISA) methodology. Either commercially available or established in house, the assay is based on the capture of the protein of interest by specific antibodies bound to the bottom of an ELISA plate well. […] Again the unbound material is washed away, the samples are then incubated with the appropriate substrate yielding a calorimetric reaction. The reaction is stopped and reading is performed in a spectrophotometer at the appropriate wavelength. Samples are tested at least in duplicate and the appropriate standard curve, consisting of serial dilutions of the recombinant target protein, is incorporated on each plate. Concentration of the protein in the sample is calculated from the standard curve.
RAW 264.7 macrophages, a mouse cell line (ATCC # TIB-71), were grown in Dulbecco's modified Eagle's medium (DMEM) with 4 mM L-glutamine adjusted to contain 1.5 g/L sodium bicarbonate, 4.5 g/L glucose, and 10% heat inactivated fetal bovine serum. Cells were grown in tissue culture flasks and seeded at appropriate density into 24 wells tissue culture plates. 0.5×10^6 Raw cells in one milliliter were stimulated with 2 μg/ml Lipopolysaccharide E. coli 055:B5 (DIFCO Laboratories). The mouse macrophages were pre-treated for one hour with controls or 10 μM of bicyclic CB2 ligands and later on activated with LPS. Dexamethasone was used as a positive control at 50 nM. Supernatant was collected 4 hours (for PGE2) and 24 hours (for IL-1β and TNF-α) after activation, and the levels of the inflammatory agent under study were determined by ELISA, as previously described. Inhibition was calculated versus vehicle treated cells.

human CB1 receptor = target: T1, human CB1 receptor (Homo sapiens, UniProt P21554); assay: biochemical; format: binding; conditions: displacement of [3H]CP55940, hCB1 HEK-293 membranes; read-out: CB1 IC50
T1 construct: purchased Perkin Elmer/NEN; host or cells: HEK-293 cells, stably transfected (membranes)
T1 sequence (P21554 whole entry): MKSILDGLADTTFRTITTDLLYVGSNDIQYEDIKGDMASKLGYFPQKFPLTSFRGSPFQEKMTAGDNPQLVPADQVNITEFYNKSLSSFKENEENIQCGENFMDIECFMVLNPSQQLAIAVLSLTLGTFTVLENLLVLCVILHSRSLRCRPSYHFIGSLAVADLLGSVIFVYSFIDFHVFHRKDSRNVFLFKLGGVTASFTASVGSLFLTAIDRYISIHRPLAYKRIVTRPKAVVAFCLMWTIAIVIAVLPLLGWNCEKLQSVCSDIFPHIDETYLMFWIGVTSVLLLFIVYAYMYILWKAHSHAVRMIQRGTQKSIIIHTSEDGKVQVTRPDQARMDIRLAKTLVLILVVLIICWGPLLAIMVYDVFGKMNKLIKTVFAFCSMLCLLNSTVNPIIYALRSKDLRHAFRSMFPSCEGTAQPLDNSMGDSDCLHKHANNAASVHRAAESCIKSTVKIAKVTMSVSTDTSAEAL
Method: (§1) In the present invention, binding affinity is represented by the IC50 value, namely the concentration of a test compound that will displace 50% of a radiolabeled agonist from the CB receptors. […] Preferably these ratios will be obtained for human CB1 and CB2 receptors. The selectivity toward CB2, denoted CB2/CB1 affinity, is calculated as the IC50 value obtained by the test compound for the displacement of the CB1 specific radioligand divided by the IC50 value obtained for the displacement of the CB2 specific radioligand, i.e. the IC50 CB1/IC50 CB2.
The CB1 binding assays were performed by testing the ability of the new compounds to displace [^3H]CP55940 from the CB1 receptor on membranes derived from hCB1 stably transfected HEK-293 cells (Perkin Elmer/NEN). Membranes were diluted in the assay buffer (50 mM Tris-HCl, 2.5 mM EDTA, 5 mM MgCl2, 1 mg/ml BSA, pH=7.4) to 500 μg protein/ml. 50 μl of diluted membranes (25 μg) were incubated with [^3H]CP55940 in the presence or absence of the bicyclic test compounds in a total volume of 0.5 ml. Tested compounds were dissolved in DMSO and diluted in the assay buffer to a final concentration of 0.1% solvent. Control samples were added with identical amount of vehicle. Non-specific binding was measured by the addition of 10 μM of WIN 55212-2. Following 1.5 hours incubation at 30° C. reactions were filtered through Whatman 934A/H filters (presoaked with 0.1% Polyethylenimine (PEI)).
(§2) Binding to CB1 is measured by competitive inhibition of [^3H]CP55940 in HEK-293 cells stably transfected with the human CB1 receptor gene. Binding to CB2 is measured by competitive inhibition of [^3H]WIN55212-2 in CHO cells stably transfected with the human CB2 receptor gene.

human CB2 receptor = human CB2 receptor (Homo sapiens, UniProt P34972); assay: biochemical; format: binding; set-up: purchased Perkin Elmer/NEN; host or cells: CHO cells, stably transfected (membranes); conditions: for CB2/CB1 affinity ratio: IC50 CB1/IC50 CB2; for IC50: displacement of [3H]WIN 55212-2, hCB2 CHO membranes
Sequence of human CB2 receptor (P34972 whole entry): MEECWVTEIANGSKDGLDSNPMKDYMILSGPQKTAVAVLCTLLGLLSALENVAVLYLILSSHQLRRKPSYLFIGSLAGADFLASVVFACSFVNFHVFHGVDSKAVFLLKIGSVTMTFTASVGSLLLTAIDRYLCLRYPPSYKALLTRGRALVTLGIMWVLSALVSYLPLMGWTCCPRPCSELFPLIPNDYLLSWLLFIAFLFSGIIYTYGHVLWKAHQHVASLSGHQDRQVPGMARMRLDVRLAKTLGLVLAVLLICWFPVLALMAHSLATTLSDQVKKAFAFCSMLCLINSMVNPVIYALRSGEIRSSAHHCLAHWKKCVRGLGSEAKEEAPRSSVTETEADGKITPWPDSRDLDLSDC
Method: as §1
The affinities of the novel bicyclic analogs to the CB2 receptor were determined by their ability to displace [^3H]WIN 55212-2 from the receptor in membranes derived from hCB2 stably transfected CHO cells (Perkin Elmer/NEN). Membranes were diluted in assay buffer (10 mM HEPES, 1 mM MgCl2, 1 mM EDTA, 0.3 mg/ml BSA, pH=7.4) to 500 μg protein/ml. 50 μl of diluted membranes (25 μg) were incubated with 0.8 nM of [^3H]WIN 55212-2 in the presence or absence of several concentrations of the bicyclic test compounds in a total volume of 1 ml. Tested compounds were dissolved and diluted as previously described for the hCB1 assay. Non-specific binding was measured by the addition of 10 μM CP 55940. Following 40 minutes incubation at 30° C. reactions were filtered as previously described. Filters for all binding assays were counted in a β-counter and log of analog concentration versus % of binding was plotted. IC50 values were extrapolated from this plot.
as §2

Female Balb/c mice = tested on: Female Balb/c mice
Method: The purpose of this study is to test in vivo the anti-inflammatory activity of the compounds in paw edema induced by injection of 1% carrageenan in the animal hind paw. Female Balb/c mice (20 g average body weight, Harlan, Israel) are anesthetized with a combination of xylazine and pentobarbitone diluted in sterile saline, 15 and 6 mg/kg i.p. respectively. Anesthetized mice are injected subcutaneously, in the subplantar region of one (right) paw with 0.05 ml of 1% w/v Carrageenan in sterile water. […] The test compounds, including known anti-inflammatory controls, are dissolved in CREMOPHOR EL®:ethanol and further diluted 1:20 or 1:50 in sterile saline prior to i.p. injection that takes place immediately before the carrageenan injection. Three hours after injection the animals are resedated following the previously described procedure. Paw thickness is measured using a dial thickness gauge (Spring-dial, constant low pressure gauge, Mitutoyo, TG/L-1, 0.01 mm) and paw volume is measured using a plethysmometer (model #7150, Ugo Basile, Italy). Paw Edema is expressed as the difference between the right treated and the left untreated paws of the same animal, either as Δ Paw Volume (ΔPV) in millimeters cube or as Δ Paw Thickness (ΔPT) in millimeters. Each group comprises at least 10 animals. […] At the end of the study, animals are euthanized with an i.p. injection of 100 mg/kg pentobarbitone.
The differences among various treatment groups are analyzed by analysis of variance (ANOVA) followed by post-hoc Fisher test. A value of p<0.05 is considered to be statistically significant.
For sake of comparison, known anti-inflammatory drugs such as Celecoxib and Dexamethasone yield respectively in the range of relevant doses 7% and 26% reduction in paw thickness at 0.1 mg/kg, 16% and 31% at 0.25 mg/kg and 24% and 33% at 0.5 mg/kg. […] It should be kept in mind that these commercially available drugs display serious side effects that prevent chronic uses without complementary protective medication.

Adult female BALB/c mice = format: in vivo, mouse; conditions: i.p. twice
Method: Adult female BALB/c mice (20 g average body weight, Harlan, Israel) were sensitized on day 0 and day 1 by application of 30 μl of 0.15% Dinitrofluorobenzene (DNFB) diluted in acetone on the shaved skin of the abdomen. On day 6 the animals were challenged by application of 10 μl of DNFB in acetone on one ear. The contralateral ear was not challenged but received the application of 10 μl acetone. Test compounds were administered at increasing doses from 0 to 15 mg/kg i.p. twice, the first injection was immediately after DNFB challenge (on day 6) and the second injection was 16 hours post challenge (on day 7). Each treatment group comprised at least 7 animals. Dexamethasone (DXM) was used as positive control. Ear thickness was determined (in 0.01 mm units) 24 hours after challenge (and 6 hours after second treatment on day 7) using a dial thickness gauge (Mitutoyo, Japan).
Results are analyzed as ear thickness of DNFB treated over DNFB untreated contralateral ear. The impact of the test compound was further assessed by comparing its mean impact on the animals of the treatment group to the response generated by the appropriate vehicle only.

| Structure (SMILES) | inhibition at 10 µM [1] [%] | IC50 (human CB1 receptor) [nM] | CB2/CB1 affinity ratio (human CB2 receptor) | IC50 (human CB2 receptor) [nM] | inhibition at 0.05 µM ([1]; RAW264.7, positive control at 50 nM, 24 hours after LPS activation) [%] | reduction in paw thickness (Female Balb/c mice; 0.1 mg/kg) [%] | reduction in paw thickness (Female Balb/c mice; 0.25 mg/kg) [%] | reduction in paw thickness (Female Balb/c mice; 0.5 mg/kg) [%] | calculated IC50 reduction in ear thickness (Adult female BALB/c mice) [mg/kg] | maximal inhibition (reduction in ear thickness) (Adult female BALB/c mice; doses 0 to 15 mg/kg, 24 hours after challenge) |
| --- | --- | --- | --- | --- | --- | --- | --- | --- | --- | --- |
| CCCCCCC(C)(C)c1cc(OC)c(C2CC(=O)C3CC2C3(C)C)c(OC)c1 (single isomer, unassigned; (-)) [Compound B, (−)-4-[4-(1,1-Dimethyl-heptyl)-2,6-dimethoxy-phenyl]-6,6-dimethyl-bicyclo[3.1.1]heptan-2-one] | 34 | 2800 | 62 | 45 |  |  |  |  |  |  |
| CCCCCCC(C)(C)c1cc(O)c(C2CC(O)C3CC2C3(C)C)c(O)c1 (single isomer, unassigned; (-)) [Compound C, (−)-5-(1,1-Dimethyl-heptyl)-2-(4-hydroxy-6,6-dimethylbicyclo[3.1.1]hept-2-yl)-benzene-1,3-diol] | 26 | 31 | 9 | 3.5 |  |  |  |  |  |  |
| CCCCCCC(C)(C)c1cc(O)c([C@H]2C/C(=N/O)[C@H]3C[C@@H]2C3(C)C)c(O)c1 [Compound D] | 67 | 93 | 27 | 3.4 |  |  |  |  |  |  |
| C[C@@H]1C[C@H]2[C@@H]3CCC4=CC(=O)C=C[C@]4(C)[C@@]3(F)[C@@H](O)C[C@]2(C)[C@@]1(O)C(=O)CO [Dexamethasone, reference compound] |  |  |  |  | 97 | 26 | 31 | 33 | 3.2 | around 80% |
